Results from patent US20110015065A1 (priority 2008, published 2011).

Columns and labels:
Pyricularia oryzae = type: cell-based; conditions: 10 days after inoculation
Phakopsora pachyrhizi = assay: Curative control of soybean rust on soy beans caused by Phakopsora pachyrhizi (glasshouse); type: in vivo; conditions: comparative trial (Use example 7), untreated 100
Method: The active compounds were formulated separately or together as a stock solution comprising 25 mg of active compound which was made up to 10 ml using a mixture of acetone and/or dimethyl sulfoxide (DMSO) and the emulsifier Wettol EM 31 (wetting agent having emulsifying and dispersing action based on ethoxylated alkylphenols) in a volume ratio of solvent/emulsifier of 99 to 1. This solution was then made up to 100 ml using water. This stock solution was diluted with the solvent/emulsifier/water mixture described to the active compound concentration given below.
Leaves of pot-grown soybean seedlings were inoculated with spores of Phakopsora pachyrhizi. To ensure the success of the artificial inoculation, the plants were transferred to a humid chamber with a relative humidity of about 95% and 23 to 27° C. for 24 h. The next day the plants were sprayed to run-off with an aqueous suspension, containing the concentration of active ingredient or their mixture as described below. The plants were allowed to air-dry. Then the trial plants were cultivated for 14 days in a greenhouse chamber at 23-27° C. and a relative humidity between 60 and 80%. The extent of fungal attack on the leaves was visually assessed as % diseased leaf area.
The spray solutions were prepared as described for “Examples of the action against harmful fungi” (II. B).
The trial was conducted as described for Use example 3.

| Compound | Growth (%) at 31 ppm (Pyricularia oryzae) [%] | Disease level (%) at 250 ppm (Phakopsora pachyrhizi) [%] | Growth (%) at 2 ppm (Pyricularia oryzae) [%] |
| --- | --- | --- | --- |
| Cc1cnccc1CNS(=O)(=O)c1ccc(-c2ccc(Cl)cc2Cl)cc1 | 30 |  |  |
| COc1cc(CNS(=O)(=O)c2ccc(-c3ccc(C(F)(F)F)cc3C(F)(F)F)cc2)ccn1 |  | 100 |  |
| COc1cc(CNS(=O)(=O)c2ccc(-c3ccc(C(F)(F)F)cc3C(F)(F)F)cc2)sn1 [I-2] |  | 5 |  |
| COc1cc(CNS(=O)(=O)c2ccc(-c3ccc(Cl)cc3Cl)cc2)sn1 [I-3] |  |  | 46 |
| Cn1nccc1CNS(=O)(=O)c1ccc(-c2ccc(Cl)cc2Cl)cc1 [I-46] | 16 |  |  |
| COc1cc(CNS(=O)(=O)c2ccc(-c3ccc(Cl)cc3Cl)cc2)ccn1 [Table C) I-76 according to WO06/097489] |  |  | 68 |
